# Experimental data: paper PMC9867837 (Cancer letters, 2022)
# Like-named read-outs stand apart in the source and are kept apart here.
# Legend:
# CYP3A = CYP3A (Homo sapiens, UniProt P08684); assay: CYP inhibition, CYP3A; format: in vitro ADME
# Protocol: The in vivo activity of a compound is influenced by its overall bioavailability, which is also driven by parameters, such as solubility, permeability, and metabolism. […] These values are all above the industry cut-off of 60 μg/ml. […] It has CLint in human hepatocytes of 16 μL/min/10^6 cells, which falls into moderate stability range [43].
# pYStat3C542S = biological target: T1, pYStat3C542S (Homo sapiens, UniProt P40763, C542S); assay: EMSA with purified mutant pYStat3C542S; format: biochemical; settings: 3 μM H182, 30 min
# T1 construct: made in house; host or cells: E. coli BL21(DE3) TKB1 (inducible tyrosine kinase)
# T1 sequence (P40763 127-711 C542S): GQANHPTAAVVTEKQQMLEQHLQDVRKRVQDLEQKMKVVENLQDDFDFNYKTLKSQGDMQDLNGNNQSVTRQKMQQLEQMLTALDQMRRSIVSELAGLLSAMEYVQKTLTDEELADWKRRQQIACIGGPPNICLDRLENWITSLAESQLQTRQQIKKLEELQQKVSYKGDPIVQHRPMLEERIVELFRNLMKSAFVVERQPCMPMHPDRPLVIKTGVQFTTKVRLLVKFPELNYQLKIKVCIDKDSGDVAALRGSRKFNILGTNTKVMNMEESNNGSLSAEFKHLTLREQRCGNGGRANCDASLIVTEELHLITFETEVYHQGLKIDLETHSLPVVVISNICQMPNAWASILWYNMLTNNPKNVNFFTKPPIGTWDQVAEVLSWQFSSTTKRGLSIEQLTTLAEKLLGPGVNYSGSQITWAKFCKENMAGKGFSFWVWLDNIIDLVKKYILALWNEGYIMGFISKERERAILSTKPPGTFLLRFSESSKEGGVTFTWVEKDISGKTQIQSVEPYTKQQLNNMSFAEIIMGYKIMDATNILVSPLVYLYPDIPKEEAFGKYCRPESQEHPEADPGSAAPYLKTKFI
# Description: This construct was used to generate the mutants, Stat3C328A, Stat3C426A, Stat3C468A, and Stat3C542S, as described in detail in Supplementary Information “Methods”.
# The expression of un-phosphorylated and tyrosine phosphorylated His-tagged recombinant wtStat3 and mutant Stat3 proteins in BL21 (DE3) bacterial cells is described in detail in Supplementary Information “Methods”.
# Given the MS data, we conducted site-directed mutagenesis analysis for the effects of Cys mutations (Cys-to-Ala or Cys-to-Ser mutations) on the inhibitory activities or potencies of the compounds. […]
# In another case, the nuclear extract was pre-incubated with the radiolabeled probe for 30 min at 30 °C prior to incubation with increasing concentration of H182 at room temperature for 30 min and subjecting to EMSA analysis. Bands corresponding to Stats DNA- binding activities were scanned and quantified using ImageJ and plotted as a percentage of control (vehicle) against the concentration of the inhibitor, from which the IC50 values were derived . […]
# These studies were performed as previously reported using the v-Src -transformed NIH3T3/v-Src fibroblasts [1 -5] . […] Luciferase activity was normalized to total protein concentration of cell lysate, which was determined by Bradford assay (Bio-Rad, Hercules, CA) . […]
# MDA-MB-231 cells = assay: Immunoblotting for cleaved PARP and caspase 3; format: cell-based, human; settings: 1 μM for 0–24 h or increasing concentration for 2 h
# Protocol: These studies were performed as previously described. Details are presented in Supplementary Information, “Methods”.
# Aberrantly-active Stat3 promotes tumor cell growth and proliferation, survival, migration, invasion, and metastasis.
# These studies were performed as previously described [1 -3] . Briefly, snap-frozen tumor tissues or cultured cells treated or not were harvested and whole-cell or tissue lysates were prepared in radioimmunoprecipitation assay (RIPA) buffer. Samples of equal total protein were subjected to SDS - PAGE and immunoblotting analysis. Primary antibodies used were anti- Stat3, pY705-Stat3, pS727Stat3, […]
# Akt, pT202/Y204Erk1/2 (p44/42), Erk1/2, PARP , caspase 3, c-Myc, survivin, VEGF, β-actin, α/β-tubulin, and GAPDH. For the studies of the effects of cell density and confluence on pY705Stat3, cells were seeded […] in culture dishes. The next day, cells were untreated (DMSO control, […]
# 0.1%) or treated at the same time with 1 or 2 µM H182, allowed to incubate for the indicated time and then harvested for whole-cell lysate preparation and SDS -PAGE / immunoblotting analy sis. […]
# concentration of H182 for 6 h and then treated with 0- 100 nM docetaxel or 0-20 µM cisplatin for a total of 72 h. Viable cell numbers were assessed by a CyQuant cell proliferation kit according to the manufacturer’s instructions (Thermo/Life Technologies Corp, Carlsbad, CA). […]
# Chain of CYP3A (P08684 2-503): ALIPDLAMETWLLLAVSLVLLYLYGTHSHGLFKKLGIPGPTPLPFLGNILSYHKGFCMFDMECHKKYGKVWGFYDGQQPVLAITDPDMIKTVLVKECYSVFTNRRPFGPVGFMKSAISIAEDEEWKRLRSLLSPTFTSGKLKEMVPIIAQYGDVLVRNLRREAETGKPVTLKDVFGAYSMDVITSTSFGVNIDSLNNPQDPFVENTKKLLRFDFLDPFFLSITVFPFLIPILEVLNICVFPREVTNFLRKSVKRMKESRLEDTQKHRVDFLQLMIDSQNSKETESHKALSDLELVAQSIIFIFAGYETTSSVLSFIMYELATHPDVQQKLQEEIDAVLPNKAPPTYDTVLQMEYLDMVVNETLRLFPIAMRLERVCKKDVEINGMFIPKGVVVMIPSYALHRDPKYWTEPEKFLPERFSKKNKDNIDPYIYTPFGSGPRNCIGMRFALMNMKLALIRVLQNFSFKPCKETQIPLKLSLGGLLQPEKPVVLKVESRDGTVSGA
structure (smiles),measurement,setting,value
O=C([C@H]1CCN1S(=O)(=O)c1c(F)c(F)c(F)c(F)c1F)N(Cc1ccc(C2CCCCC2)cn1)c1ccc2c(=O)[nH]ncc2c1 [Compound H182],IC50,"CYP3A; probe midazolam, midazolam site, read-out: CYP Inhibition CYP3A (Midazolam) IC50",6.9 µM
same,IC50,"CYP3A; probe testosterone, testosterone site, read-out: CYP Inhibition CYP3A (Testosterone) IC50",1.2 µM
same,Effect on DNA-binding activity of pYStat3C542S,pYStat3C542S,strong inhibition
same,Cleaved PARP and caspase 3,MDA-MB-231 cells,moderate levels
